Laboratory results from patent publication US9775902B2, “Compounds and methods for treatment of stroke” (FIBROGEN, INC, priority 2006, dated 2017).
Values joined by “and” are separate entries in the source; they are usually repeats but may differ in a detail not shown here. Identical values can stand only once. Like-named read-outs stand apart in the source and are kept apart here.

Key:
[1] = system: VEGF; experiment: Plasma VEGF in mice after intravenous injection; assay type: in vivo, Swiss Webster mice; conditions: mouse plasma, 20 mg/kg i.v., four hours after injection; for fold induction at 20 mg/kg: iv, 4 h, read-out: VEGF Fold Increase
Procedure, shortened: (§1)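 Male Swiss Webster mice (29-34 g) received 20 mg/kg compound or vehicle by tail-vein injection in 5% dextrose with equimolar NaOH or meglumine. Plasma was collected 4 h later, and EPO and VEGF were measured by ELISA.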

[2] = system: erythropoietin; experiment: Plasma EPO in mice after intravenous injection; assay type: in vivo, Swiss Webster mice; conditions: mouse plasma, 20 mg/kg i.v., four hours after injection; for fold induction at 20 mg/kg: iv, 4 h, read-out: EPO Fold Increase
Procedure, shortened: as §1

[3] = system: erythropoietin; experiment: Plasma EPO in mice after oral gavage; assay type: in vivo, Swiss Webster mice; conditions: mouse plasma, oral gavage 6-60 mg/kg, six hours
Experimental: (§2) In another series of experiments, male Swiss Webster mice (29-34 g) were administered various compounds of the present invention via oral gavage using a ball-tipped gavage needle. Animals treated by oral gavage received a 4-10 ml/kg volume of either 0.5% carboxymethyl cellulose with or without 0.1% Polysorbate 80 (vehicle control) or various doses (6-60 mg/kg) of a compound of the present invention in 0.5% CMC, with or without 0.1% Polysorbate 80. Blood samples were collected and tissues were processed as described above. Six hours after injection, the animals were anesthetized and exsanguinated.
(§3) Plasma samples were collected in EDTA and heparin coated microtainer tubes. Plasma samples were assayed for erythropoietin and VEGF using commercially-available ELISA kits purchased from R & D Systems (Minneapolis Minn.).

[4] = system: vascular endothelial growth factor (VEGF); experiment: VEGF expression in Kelly neuroblastoma cells; assay type: cell-based; conditions: for VEGF: conditioned media after overnight incubation
Procedure, shortened: (§4)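 Kelly neuroblastoma cells treated overnight with compound, 1% DMSO as negative control. EPO and VEGF secreted into conditioned media measured by QUANTIKINE immunoassay.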

[5] = system: erythropoietin (EPO); experiment: EPO expression in Hep3B cells (QUANTIKINE immunoassay of conditioned media); assay type: cell-based, Human; conditions: for Fold Increase Over Control: EPO, vs 1% DMSO control; for EPO: conditioned media after overnight incubation with compound
Procedure, shortened: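 Confluent Hep3B cells were switched to OPTI-MEM for about 24 h (20% O2, 5% CO2, 37 °C), then treated overnight with compound or 1% DMSO vehicle. EPO secreted into the conditioned medium was measured by QUANTIKINE immunoassay.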

[6] = system: VEGF; experiment: Plasma VEGF in mice after oral gavage; assay type: in vivo, Swiss Webster mice; conditions: mouse plasma, oral gavage 6-60 mg/kg, six hours
Experimental: as §2, §3

[7] = system: C57BL/6 mice, permanent occlusion of the MCA; experiment: Permanent middle cerebral artery occlusion (pMCAO) in C57BL/6 mice: infarct volume and edema; assay type: in vivo; conditions: C57BL/6 mice pMCAO, 20-60 mg/kg i.v.; for inhibition in vivo at up to 20 mg/kg: Mus musculus, iv, 24 h, 24 hours after MCA occlusion, read-out: Percent Reduction in Infarct Volume
Experimental: The effect of compounds of the present invention on infarct volume and edema associated with stroke was examined in an animal model of ischemic stroke. In these studies, mice were subjected to permanent occlusion of the middle cerebral artery. Mice were anesthetized intraperitoneally with avertin (0.5 mg/g). Mice were then immobilized in a rodent stereotaxic frame (Kopf Instruments, Tujunga Calif.) and maintained with avertin as needed. The surgical area of the head was swabbed with 70% ethanol and a lateral incision was made between the right orbit and the right ear. […] The distal course of the middle cerebral artery (MCA) was visible through the translucent skull. A small burr-hole craniotomy was performed with a micro-drill (Fine Science Tools, Foster City Calif.). The meninges/dura was removed and the MCA was coagulated by bipolar diathermy. The muscle and soft tissue were replaced and the incision closed with vet-bond adhesive (3M, St. Paul Minn.). These studies were performed in two different mouse models of pMCAO as described below.
In one series of experiments, male C57BL/6 mice (25-35 g) were subjected to permanent occlusion of the MCA as described above. Compounds of the present invention were administered by intravenous injection at various times before or after MCA occlusion (see Table 7). Animals administered compound by intravenous injection received a 6 ml/kg volume of either 5% Dextrose with an equimolar amount of Meglumine (vehicle control) or 20-60 mg/kg of a compound of the present invention in 5% dextrose with an equimolar amount of Meglumine. Body temperature of the animals was maintained by use of a heating pad both during and after surgery. Twenty-four hours after MCA occlusion animals were euthanized with CO2 and their brains removed. After removal, the brain was sliced in 7 coronal sections, each 1 mm thick. The sections were placed rostral side down in a petri dish and stained with 1% Triphenyl tetrazolium chloride for 20 minutes at 37° C. for determination of infarct volume. Brain sections were then digitally photographed and analyzed for changes in infarct volume and extent of edema. Infarct volumes were determined by measuring the infarcted (i.e., non-stained) areas of each brain section and multiplying this value by the section thickness. Extent of edema was determined by the net increase in volume of the ipsilateral cortex compared to that of the contralateral cortex of brain sections.
The effect of compounds of the present invention administered at various times following the onset of stroke was examined further as follows. In these studies, changes in infarct volume were measured using an animal model of stroke when compounds of the present invention were administered from 0 to 8 hours following permanent MCA occlusion. In one series of experiments, male C57BL/6 mice (25-35 g) were subjected to permanent occlusion of the MCA as described above. Compound F was administered to the animals by a single intravenous bolus injection at various times up to 5 hours after MCA occlusion (see Table 8 below). Animals administered compound by intravenous injection received a 6 ml/kg volume of either 5% Dextrose with an equimolar amount of NaOH (vehicle control) or 60 mg/kg of Compound F in 5% dextrose with an equimolar amount of NaOH. Body temperature of the animals was maintained by use of a heating pad both during and after surgery. Changes in infarct volumes were determined as described above.
In another set of experiments, male C57BL/6 mice (25-35 g) were subjected to permanent occlusion of the MCA as described above. Compound F was administered by single intravenous bolus injection at various times up to 8 hours after MCA occlusion (see Table 9 below). Animals administered compound by intravenous injection received a 6 ml/kg volume of either 5% Dextrose with an equimolar amount of Meglumine (vehicle control) or 60 mg/kg of Compound F in 5% dextrose with an equimolar amount of Meglumine. […]

[8] = system: erythropoietin (EPO); experiment: EPO expression in Kelly neuroblastoma cells; assay type: cell-based; conditions: for EPO: conditioned media after overnight incubation
Procedure, shortened: as §4

[9] = system: vascular endothelial growth factor (VEGF); experiment: Brain VEGF gene expression in mice after intravenous injection; assay type: in vivo, Swiss Webster mice; conditions: 20 mg/kg i.v., four hours, quantitative real time PCR normalized to 18s RNA, 20 mg/kg
Experimental: The effect of compounds of the present invention on regulation of cytoprotective and neuroprotective gene expression in brain was evaluated. In one series of experiments, male Swiss Webster mice were administered by intravenous injection various compounds of the present invention. Animals treated by intravenous injection received a 6 ml/kg volume of either 5% Dextrose with an equimolar amount of Meglumine (vehicle control) or 20 mg/kg of a compound of the present invention in 5% dextrose with an equimolar amount of Meglumine Animals were euthanized four hours later and their brains placed in RNAlater (Ambion, Austin Tex.) for subsequent analysis. Tissues were homogenized in Trizol (Invitrogen, Carlsbad Calif.) using 5-mm steel beads in a Mixer Mill (Qiagen, Valencia Calif.). RNA was isolated from the Trizol solution and then further purified using RNeasy kit (Qiagen). cDNA was prepared from […] total RNA using Omniscript reverse transcriptase (Qiagen) and random hexamers. Quantitative real time PCR was performed in a 7900HT instrument (Applied Biosystems, Foster City Calif.) using TaqMan Assays-on-Demand (Applied Biosystems). Gene expression levels were normalized to that of 18s RNA.

[10] = compound given 4 hr after occlusion

In the case of O=C(O)CNC(=O)c1ncc2cc(Oc3ccc4c(c3)OCO4)ccc2c1O [Compound O, {[7-(Benzo[1,3]dioxol-5-yloxy)-4-hydroxy-isoquinoline-3-carbonyl]-amino}-acetic acid], the fold induction at 20 mg/kg [1] is reported as 2.21, the VEGF [1] is reported as 64 pg/mL and the fold induction at 20 mg/kg [2] is reported as 174. The EPO ([2]; mouse EPO ELISA kit (**)) was 157 pg/mL, the “EPO Fold Increase” value [3] was 11.87 and the EPO ([3]; mouse EPO ELISA kit (**)) was 83.1 pg/mL. For the same compound, the “VEGF Fold Increase” value [4] was 3.6, the VEGF [4] was 5235 pg/mL and the “Fold Increase Over Control” value [5] was 14.7. The EPO [5] was 97.4 mIU/ml, the VEGF [6] was 46 pg/mL and the “VEGF Fold Increase” value [6] was 1.48. The inhibition in vivo at up to 20 mg/kg ([7]; compound given 0 hr) was 31%, the “EPO Fold Increase” value [8] was 7.93 and the EPO [8] was 149.8 mIU/ml.
In the case of O=C(O)CNC(=O)c1nc(Oc2ccccc2F)c2ccccc2c1O [Compound Z, {[1-(2-Fluoro-phenoxy)-4-hydroxy-isoquinoline-3-carbonyl]-amino}-acetic acid], the “VEGF gene expression in brain” value [9] is reported as 2.2 and 2.1.
For O=C(O)CNC(=O)c1nc(Cl)c2ccsc2c1O [Compound L, [(4-Chloro-7-hydroxy-thieno[3,2-c]pyridine-6-carbonyl)-amino]-acetic acid], the fold induction at 20 mg/kg [1] was 0.43, the VEGF [1] was 13 pg/mL and the fold induction at 20 mg/kg [2] was 14.6. The EPO ([2]; mouse EPO ELISA kit (**)) was 400.3 pg/mL, the “EPO Fold Increase” value [3] was 11.81 and the EPO ([3]; mouse EPO ELISA kit (**)) was 82.7 pg/mL. For the same compound, the “VEGF Fold Increase” value [4] was 3.3, the VEGF [4] was 4750.0 pg/mL and the “Fold Increase Over Control” value [5] was 4.2. The EPO [5] was 11.1 mIU/ml, the VEGF [6] was 41 pg/mL and the “VEGF Fold Increase” value [6] was 1.32. For the same compound, the inhibition in vivo at up to 20 mg/kg [7, 10] was 48%, the “EPO Fold Increase” value [8] was 5.2 and the EPO [8] was 98.2 mIU/ml.
Compound O=C(O)CNC(=O)c1ncc2cc(Oc3ccc4c(c3)CCO4)ccc2c1O [Compound X, {[7-(2,3-Dihydro-benzofuran-5-yloxy)-4-hydroxy-isoquinoline-3-carbonyl]-amino}-acetic acid] has a fold induction at 20 mg/kg [1] of 2.4, a VEGF [1] of 48 pg/mL and an EPO ([2]; mouse EPO ELISA kit (**)) of 183 pg/mL. For the same compound, the “EPO Fold Increase” value [3] was 5.86, the EPO ([3]; mouse EPO ELISA kit (**)) was 41 pg/mL and the “VEGF Fold Increase” value [4] was 3.9. The VEGF [4] was 5751 pg/mL, the “Fold Increase Over Control” value [5] was 19.0 and the EPO [5] was 126.2 mIU/ml. For the same compound, the VEGF [6] was 36 pg/mL, the “VEGF Fold Increase” value [6] was 1.16 and the inhibition in vivo at up to 20 mg/kg ([7]; compound given 0 hr) was 36%. The “EPO Fold Increase” value [8] was 13.76 and the EPO [8] was 260.1 mIU/ml.
With O=C(O)CNC(=O)c1ncc2cc(Sc3ccccc3)ccc2c1O [Compound E, [(4-Hydroxy-7-phenylsulfanyl-isoquinoline-3-carbonyl)-amino]-acetic acid] the fold induction at 20 mg/kg [1] was 1.58, the VEGF [1] was 66.5 pg/mL and the EPO ([2]; human EPO ELISA kit (*)) was 122 mIU/ml. The EPO ([3]; human EPO ELISA kit (*)) was 17.4 mIU/ml, the “VEGF Fold Increase” value [4] was 15.8 and the VEGF [4] was 2495.8 pg/mL. For the same compound, the “Fold Increase Over Control” value [5] was 17.0, the EPO [5] was 127.6 mIU/ml and the VEGF [6] was 65.4 pg/mL. The “VEGF Fold Increase” value [6] was 1.63, the “Percent Reduction in Edema” value ([7]; compound given −6 hr) was 54% and the inhibition in vivo at up to 20 mg/kg [7, 10] was 9%. The inhibition in vivo at up to 20 mg/kg ([7]; compound given −6 hr) was 51%, the “EPO Fold Increase” value [8] was 9.0 and the EPO [8] was 55.8 mIU/ml.
O=C(O)CNC(=O)c1ncc2cc(Oc3ccc(F)cc3)ccc2c1O [Compound G, {[7-(4-Fluoro-phenoxy)-4-hydroxy-isoquinoline-3-carbonyl]-amino}-acetic acid] was tested, and the fold induction at 20 mg/kg [1] was 2.46, the VEGF [1] was 86.5 pg/mL and the fold induction at 20 mg/kg [2] was 270. The EPO ([2]; human EPO ELISA kit (*)) was 162 mIU/ml, the “EPO Fold Increase” value [3] was 123.57 and the EPO ([3]; human EPO ELISA kit (*)) was 173 mIU/ml. For the same compound, the “VEGF Fold Increase” value [4] was 14.4, the VEGF [4] was 2271.5 pg/mL and the “Fold Increase Over Control” value [5] was 5.1. For the same compound, the EPO [5] was 73.4 mIU/ml, the VEGF [6] was 110.8 pg/mL and the “VEGF Fold Increase” value [6] was 2.58. For the same compound, the inhibition in vivo at up to 20 mg/kg [7, 10] was 48%, the “EPO Fold Increase” value [8] was 5.5 and the EPO [8] was 34.4 mIU/ml.
C#Cc1nc(C(=O)NCC(=O)O)c(O)c2ccsc12 [Compound M, [(7-Ethynyl-4-hydroxy-thieno[2,3-c]pyridine-5-carbonyl)-amino]-acetic acid] was tested, and the fold induction at 20 mg/kg [1] was 1.31, the VEGF [1] was 38 pg/mL and the fold induction at 20 mg/kg [2] was 180. For the same compound, the EPO ([2]; mouse EPO ELISA kit (**)) was 161.6 pg/mL, the “EPO Fold Increase” value [3] was 1.26 and the EPO ([3]; mouse EPO ELISA kit (**)) was 8.8 pg/mL. The “VEGF Fold Increase” value [4] was 2.0, the VEGF [4] was 1436 pg/mL and the “Fold Increase Over Control” value [5] was 11.6. The EPO [5] was 64.1 mIU/ml, the VEGF [6] was 38 pg/mL and the “VEGF Fold Increase” value [6] was 1.23. For the same compound, the “EPO Fold Increase” value [8] was 285 and the EPO [8] was 57 mIU/ml.
